Results published in patent publication US20230391729A1, “SUCCINATE SALTS OF N-(3-(4-(3-(DIISOBUTYLAMINO)PROPYL)PIPERAZIN-1-YL)PROPYL)-1H-BENZO[D]IMIDAZOL-2-AMINE, PREPARATION THEREOF AND USE OF THE SAME” (ALZPROTECT, priority 2020, published 2023).

Experiments:
PGRN = assay: Extracellular progranulin quantification by ELISA after Aβ1-42 injury; type: cell-based, rat; conditions: Aβ1-42 injury 72 h; 10 nM
Protocol: (§1) Rat cortical neurons cultured with microglia were cultured as described by Callizot et al. in J Neurosci Res. 2013, 91: 706-716 with modifications to include microglial cells. Pregnant female rats (Rats Wistar; Janvier Labs France) of 15 days of gestation were killed, after a deep anesthesia with CO2, by cervical dislocation. Then, fetuses were collected and immediately placed in ice-cold L15 Leibovitz medium with a 2% penicillin (10,000 U/ml) and streptomycin (10 mg/ml) solution (PS) and 1% bovine serum albumin (BSA). Cortexes were treated for 20 min at 37° C. with a trypsin-EDTA solution at a final concentration of 0.05% trypsin and 0.02% EDTA. […] Viable cells were counted in a Neubauer cytometer, using the trypan blue exclusion test. […]
(§2) Cortical neurons were intoxicated with A3 solutions (see below) after 11 days of culture. […] This solution was gently agitated for 3 days at 37° C. in the dark and immediately used after being properly diluted in control medium to the concentrations used ([…] of Aβ1-42 preparation containing […] of Aβ oligomers (AβO) measured by WB). […]
Levels of PGRN in the culture medium were determined by ELISA (Progranulin (rat) ELISA lit, Adipogen, Coger) according to manufacturer's recommendations. […] Optical density (OD) was assessed by spectrophotometry at 450 nm wavelength with a Glomax apparatus (Promega). […]

[1] = Variable humidity XRPD (VH-XRPD); type: physicochemical; conditions: exposure to 90% RH for up to 1 hour and 30 minutes
Protocol: VH-XRPD analysis was carried out on a Philips X'Pert Pro Multipurpose diffractometer equipped with a humidity chamber. The samples were scanned between 4 and 35.99° 20 using Cu K radiation (α1 λ=1.54060 Å; α2=1.54443 Å; β=1.39225 Å; α1: α2 ratio=0.5) running in Bragg-Brentano geometry (step size 0.008 °2θ) using 40 kV/40 mA generator settings. Measurements were performed at 50%, 60%, 70%, 80%, 90%. The sample was held at 90% for an hour and 30 minutes. Measurements were taken at 30-minute intervals.

[2] = tested on: tau, phosphorylated on the sites Thr212 and Ser214 (AT100); assay: Tau phosphorylation (AT100) in cortical neurons after Aβ1-42 injury; type: cell-based, rat; conditions: Aβ1-42 injury 72 h; doses above 1 nM
Protocol: as §1, with “EDTA. The dissociation was stopped by addition of Dulbecco's modified Eagle's medium (DMEM) with 4.5 g/liter of glucose, containing DNAse I grade II (final concentration 0.5 mg/ml) and 10% fetal calf serum (FCS). Cells were mechanically dissociated by three forced passages through the tip of a 10-mL pipette.” for “EDTA.”
as §2

[3] = Solubility assessment in unbuffered water and pH buffers; type: physicochemical; conditions: solution in unbuffered water
Protocol: 100 μL of the appropriate buffer was added to form a slurry.

[4] = 7-day stability tests of the salt (XRPD, HPLC purity); type: physicochemical; conditions: for Purity (%) by HPLC after 7-day stability test: 7 days
Protocol: 7-day stability tests were carried out as follows: 15 mg of salt was weighed into x3 2 mL vials. The vials were then placed at 40° C./75% RH, 80° C. and under ambient light; after 1 week, the solids were analysed by XRPD and HPLC purity (method A).

microglial cells = assay: Microglia activation (OX-41) after Aβ1-42 injury; type: cell-based, rat; conditions: Aβ1-42 injury 72 h; at the investigated doses
Protocol: as §1, with “EDTA. The dissociation was stopped by addition of Dulbecco's modified Eagle's medium (DMEM) with 4.5 g/liter of glucose, containing DNAse I grade II (final concentration 0.5 mg/ml) and 10% fetal calf serum (FCS). Cells were mechanically dissociated by three forced passages through the tip of a 10-mL pipette.” for “EDTA.”
as §2

N-(3-(4-(3-(diisobutylamino)propyl)piperazin-1-yl)propyl)-1H-benzo[d]imidazol-2-amine sesqui-succinate salt [sesqui-succinate salt Form 1]
levels of extracellular PGRN (PGRN): significantly increased
VH-XRPD crystalline form [1]: no change to crystallinity or form
hyperphosphorylation of Tau (AT100 in MAP-2 neurons) [2]: significantly reduced
pH measurement [3]: 5.28
XRPD crystallinity or form after 7-day stability tests ([4]; 40° C./75% RH, 80° C. and ambient light): no change to crystallinity or form
Purity (%) by HPLC after 7-day stability test ([4]; 40° C./75% RH): 98.5%
Purity (%) by HPLC after 7-day stability test ([4]; 80° C.): 98.3%
Purity (%) by HPLC after 7-day stability test ([4]; Ambient Light): 98.4%
change in HPLC purity after 7-day stability test ([4]; each stability condition): no change in purity
activation of microglial cells (OX41 area) (microglial cells): able to decrease the activation of microglial cells
